Experimental data: publication PMC8235719, “New RAD51 Inhibitors to Target Homologous Recombination in Human Cells” (Genes, 2021)
Values after ≈ are worked out from the molar mass of the structure shown. Like-named read-outs stand apart in the source and are kept apart here.

How the values were obtained:
[1] = test system: MDA-MB-231 cells; test: Cell viability assay (Guava ViaCount flow cytometry), MDA-MB-231; type: cell-based, human; details: Homo sapiens
Protocol: (§1) For all cell viability experiments, except experiments involving MMS treatment, cells were seeded into the media containing indicated concentrations of tested compounds or corresponding amounts of DMSO in controls. The concentration of DMSO in media was 0.1%. MDA-MB-231 cells were seeded into 24-well plates at 3.5 × 10^4 cells/well for cells for a 4-day treatment or at 5000 cells/well for a 10-day treatment. MCF 10A cells were seeded into 24-well plates at 1.5 × 10^4 cells/well for a 4-day treatment or at 500 cells/well for a 10-day treatment. In the case of 10-day treatments, the media with compounds were renewed twice on the 4th and the 7th days of treatments. After completion of the treatments, cells were harvested, and their viability was determined by flow cytometry with Guava ViaCount reagent (Luminex; Austin, TX USA). Data were analyzed using the Guava ViaCount software (Millipore; Burlington, VT, USA). The IC50 values were calculated using the GraphPad Prism 5 software (San Diego, CA, USA).

[2] = test system: HR in human U-2 OS IndDR-GFP cells; test: Inducible I-SceI DR-GFP assay (IndDR-GFP), inhibition of HR; type: cell-based; details: Homo sapiens, U2OS; U-2 OS IndDR-GFP cells; 24 h with compound; ± SD; read-out: IC50, efficiency of HR inhibition in IndDR-GFP assay
Protocol: Exponentially growing U-2 OS IndDR-GFP cells were seeded at a density of 2 × 10^5 cells/well into 6-well plates with DMEM media containing 80 µg/mL G418 and indicated concentrations of RAD51i(s). For I-SceI induced samples, the media were supplemented with 0.5 µM Shield1 (Clontech, Mountain View, CA, USA) with 100 nM triamcinolone acetonide (Sigma, St. Louis, MO, USA). After 24 h of incubation, the media were removed, cells were washed with the DMEM, and the incubation continued for 48 h in DMEM containing 100 units/mL penicillin, 100 µg/mL streptomycin, and 80 µg/mL G418. Then, cells were trypsinized, trypsin solution was neutralized with an equal volume of media, and 10% formaldehyde solution in PBS was added for fixation to reach a final concentration of formaldehyde of 3.3%. The yield of GFP-positive cells indicative of HR activity was measured by flow cytometry with the Guava easyCyte system, and the data were analyzed with the InCyte program (Millipore; Burlington, VT, USA).

[3] = molecular target: T1, HsRAD51 (Homo sapiens, UniProt Q06609); test: Surface plasmon resonance (SPR) binding to immobilized RAD51; details: 25 °C, equilibrium analysis, ± SD, read-out: KD, equilibrium dissociation constant of direct binding to hRAD51
T1 sequence (Q06609 1-339): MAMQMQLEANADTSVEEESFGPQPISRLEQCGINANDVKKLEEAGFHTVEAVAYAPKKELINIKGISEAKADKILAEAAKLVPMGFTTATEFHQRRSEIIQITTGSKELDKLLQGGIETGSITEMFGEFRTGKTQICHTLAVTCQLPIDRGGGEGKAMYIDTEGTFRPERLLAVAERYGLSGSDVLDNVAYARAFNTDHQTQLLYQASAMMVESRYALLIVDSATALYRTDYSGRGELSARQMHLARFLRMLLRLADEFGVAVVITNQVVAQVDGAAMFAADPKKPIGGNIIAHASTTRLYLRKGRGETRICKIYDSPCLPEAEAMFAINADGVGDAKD
Protocol: The binding of RAD51i to RAD51 was examined using a ProteOn XPR36 SPR Protein Interaction Array System (Bio-Rad, Hercules, CA, USA) at 25 °C. ProteOn GLH sensor chips were preconditioned with two 10 s pulses of 50 mM NaOH, 100 mM HCl, and 0.5% SDS followed by the system equilibration with the running buffer (20 mM sodium phosphate, 150 mM NaCl, and 0.005% Tween 20, pH 7.4). The surface of a GLH sensorchip was subsequently activated with a 1:100 dilution of a 1:1 mixture of 0.2 M EDC and 0.05 M Sulfo-NHS. Purified HsRAD51 was diluted to 500 µg/mL in 10 mM sodium acetate, pH 5.5, and injected immediately after chip activation across the ligand flow channels at 30 µL/min for 5 min. Unreacted protein was washed out, and the excess of unreacted ester groups on the sensor surface was capped by an injection of 1 M ethanolamine-HCl, pH 8.0, at 5 µL/min for 5 min. A reference surface to correct for nonspecific binding was similarly created by immobilizing an IgG b12 anti-HIV-1 gp120 antibody (IgG b12 anti-HIV-1 gp120; was obtained through the NIH AIDS Reagent Program, Division of AIDS, NIAID, NIH: Anti-HIV-1 gp120 Monoclonal (IgG1 b12) from Drs. Dennis Burton and Carlos Barbas). Serial dilutions of the compounds were prepared in the running buffer supplemented with 8% DMSO and injected at a flow rate of 100 μL/min for a 1 min association phase, followed by a 5 min dissociation phase using the “one-shot kinetics” functionality of the ProteOn instrument. Data were analyzed with ProteOn Manager Software version 3.0 (Bio-Rad; Hercules, CA, USA). The responses from the reference flow cell were subtracted to account for the non-specific binding and injection artifacts. Experiments were repeated at least three times. The equilibrium dissociation constants (KD) for the interactions were calculated in ProteOn Manager Version 3.1.0.6 (Bio-Rad; Hercules, CA, USA) using the equilibrium analysis function.

[4] = test system: MCF 10A cells; test: Cell viability assay (Guava ViaCount flow cytometry), MCF 10A; type: cell-based, human; details: 4-day treatment
Protocol: as §1

[5] = Solubility in DMSO; type: physicochemical; details: organic solvent or mixture; in 100% DMSO; read-out: Maximal soluble concentration
[6] = molecular target: T1, HsRAD51; set-up: method as in PMID 22380680; details: earlier work; cited from earlier work
[7] = test system: HR in U-2 OS DR-GFP cells; test: Canonical DR-GFP assay, inhibition of HR; type: cell-based; details: Homo sapiens, U2OS
[8] = test system: RAD51 foci in U-2 OS IndDR-GFP cells; set-up: method as in PMID 24971740; details: earlier work; cited from earlier work

## O=c1nc(/C=C/c2cccnc2)n(Cc2ccc(I)cc2)c2ccccc12 [p-I-B02-iso]
[1]; MDA-MB-231, 96 h, MDA-MB-231, 4-day treatment, read-out: IC50 of cell viability
  IC50: 1.1 µM
[2]
  IC50: 0.72 ± 0.07 µM
[3]
  Kd: 1.4 ± 0.6 µM
[4]; ratio of IC50
  Times lower sensitivity of MCF 10A compared with MDA-MB-231: approximately 3
[4]; Homo sapiens, 96 h, MCF 10A
  IC50: 2.7 µM

## O=c1nc(/C=C/c2cccnc2)n(Cc2cccc(I)c2)c2ccccc12 [m-I-B02-iso]
[2]
  IC50: 0.86 ± 0.02 µM

## O=c1nc(/C=C/c2cccnc2)n(Cc2ccccc2Br)c2ccccc12 [o-Br-B02-iso]
[2]
  IC50: 4.6 ± 1.28 µM

## O=C(c1cc(Cc2n[nH]c(=O)c3ccccc23)ccc1F)N1CCN(C(=O)C2CC2)CC1 [olaparib, reference compound]
[1]; MDA-MB-231, 240 h, MDA-MB-231, 10-day treatment, olaparib only (DMSO), read-out: IC50 of olaparib, cell viability
  IC50: 8.6 µM
[1]; MDA-MB-231, 240 h, MDA-MB-231 transfected with antiRAD51 siRNA_A, 10 days olaparib, read-out: IC50 of olaparib, cell viability
  IC50: 3.2 µM
[1]; MDA-MB-231, 240 h, MDA-MB-231 transfected with scrambled siRNA, 10 days olaparib, read-out: IC50 of olaparib, cell viability
  IC50: 6.3 µM

## O=c1nc(/C=C/c2cccnc2)n(Cc2cccc(Br)c2)c2ccccc12 [m-Br-B02-iso]
[2]
  IC50: 0.9 ± 0.18 µM
[3]
  Kd: 8.4 ± 1.8 µM

## O=c1nc(/C=C/c2cccnc2)n(Cc2ccccc2Cl)c2ccccc12 [o-Cl-B02-iso]
[2]
  IC50: 5.56 ± 0.49 µM

## O=c1nc(/C=C/c2cccnc2)n(Cc2ccc(Br)cc2)c2ccccc12 [p-Br-B02-iso]
[2]
  IC50: 0.8 ± 0.1 µM
[5]
  solubility: 500 µM (≈ 209 µg/mL)

## O=c1c2ccccc2nc(/C=C/c2cccnc2)n1Cc1ccccc1 [B02]
[2]
  IC50: 17.7 ± 3.89 µM
[6]
  Binding to RAD51 in vitro by SPR: binds to RAD51 directly in vitro
[7]
  IC50: 17.9 ± 3.5 µM
[8]
  RAD51 foci formation induced by cisplatin: disrupts RAD51 foci formation
